Data set [1] concerns Hepatotoxicity.
Data set [2] deals with Hepatotoxicity. This is another data set of the same source.
Data set [3] has as its system Hepatotoxicity. The source holds these as a separate data set.
Data set [4] concerns Hepatotoxicity. The source holds these as a separate data set.
The test system of data set [5] is Hepatotoxicity. This is another data set of the same source.
Data set [6] deals with Hepatotoxicity. The source holds these as a separate data set.
Data set [7] relates to Hepatotoxicity. This is another data set of the same source.
In data set [8] the test system is Hepatotoxicity. This is another data set of the same source.
In data set [9] the test system is Hepatotoxicity. This is another data set of the same source.
The test system of data set [10] is Hepatotoxicity. This is another data set of the same source.
Data set [11] relates to Hepatotoxicity. The source holds these as a separate data set.
For data set [12], the system named is Hepatotoxicity. The source holds these as a separate data set.
The test system of data set [13] is Hepatotoxicity. This is another data set of the same source.
The subject of data set [14] is Hepatotoxicity. This is another data set of the same source.

Each structure is given as a SMILES string.
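Wherever HepSE Combined Scores is given: combined hepatic side effect score as listed in the training data of the Drug Induced Liver Injury Prediction System (DILIps).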
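Wherever HepSE bilirubinemia is given: bilirubinemia hepatic side effect score drawn from the DILIps training data, a prediction system for drug-induced liver injury; call rule not given here.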
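Wherever HepSE cholecystitis is given: Cholecystitis-related hepatic side effect score drawn from the DILIps (drug-induced liver injury prediction) training data set; call rule not given here.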
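Wherever HepSE cholelithiasis is given: hepatic side effect score for cholelithiasis, drawn from the DILIps training data for predicting drug-induced liver injury; call rule not given here.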
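Wherever HepSE cirrhosis is given: cirrhosis hepatic side effect score taken from the DILIps (drug-induced liver injury prediction) training set; call rule not given here.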
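Wherever HepSE elevated liver function tests is given: hepatic side effect score for raised liver function tests, as recorded in the DILIps training set used for predicting drug-induced liver injury.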
Wherever HepSE hepatic failure is given: call rule not given here.
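Wherever HepSE hepatic necrosis is given: score of hepatic side effects for hepatic necrosis, drawn from the training data of DILIps, a prediction system for drug-induced liver injury; call rule not given here.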
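Wherever HepSE hepatitis is given: Hepatitis-related hepatic side effect score taken from the training data of DILIps, a prediction system for drug-induced liver injury; call rule not given here.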
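Wherever HepSE hepatomegaly is given: hepatic side effect score for hepatomegaly, taken from the training set of the DILIps drug-induced liver injury prediction system; call rule not given here.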
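Wherever HepSE jaundice is given: Jaundice-related hepatic side-effect score drawn from the training data of the DILIps (drug-induced liver injury prediction system); call rule not given here.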
Wherever HepSE liver disease is given: call rule not given here.
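Wherever HepSE liver fatty is given: hepatic side effect score for fatty liver, taken from the DILIps training set for predicting drug-induced liver injury; call rule not given here.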
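Wherever HepSE liver function tests abnormal is given: hepatic side effect score taken from the DILIps (drug-induced liver injury prediction system) training data, here covering abnormal liver function test findings.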

For the compound `Nc1nc(NC2CC2)c2ncn([C@H]3C=C[C@@H](CO)C3)c2n1` [ABACAVIR], the HepSE_bilirubinemia in the data set on Hepatotoxicity [1] is 0. In the data set with Hepatotoxicity [2], this compound returned a HepSE_cholecystitis of 0. In the data set with Hepatotoxicity [3], this compound displayed a HepSE_cholelithiasis of 0. This compound had a HepSE_cirrhosis with Hepatotoxicity [4] of 0. Also, in the data set with Hepatotoxicity [5], the “HepSE_elevated liver function tests” value was found to be 1. The compound also had a HepSE_hepatic failure in the data set on Hepatotoxicity [6] of 1. The HepSE_hepatic necrosis in the data set on Hepatotoxicity [7] is on record as 0. In the data set with Hepatotoxicity [8], this compound registered a HepSE_hepatitis of 0. In the data set on Hepatotoxicity [9], this compound yielded a HepSE_hepatomegaly of 0. In addition, the HepSE_jaundice with Hepatotoxicity [10] is listed as 0. Moreover, the HepSE_liver disease in the data set on Hepatotoxicity [11] amounted to 0. The HepSE_liver fatty in the data set on Hepatotoxicity [12] came out at 1. Moreover, the “HepSE_liver function tests abnormal” value with Hepatotoxicity [13] was determined as 0. Further, the “HepSE_Combined Scores” value in the data set with Hepatotoxicity [14] is on record as 3.

Regarding `CN/C(=N/CCSCc1nc[nH]c1C)NC#N` [CIMETIDINE], in the data set on Hepatotoxicity [1] (Liver), the HepSE_bilirubinemia amounted to 0. Further, the HepSE_cholecystitis with Hepatotoxicity [2] (Liver) was determined as 0. This compound also had a HepSE_cholelithiasis in the data set on Hepatotoxicity [3] (Liver) of 0. Also, the HepSE_cirrhosis with Hepatotoxicity [4] (Liver) is on record as 0. For the same compound, in the data set with Hepatotoxicity [5] (Liver), the “HepSE_elevated liver function tests” value is 0. Also, the HepSE_hepatic failure in the data set with Hepatotoxicity [6] (Liver) is 0. In addition, the HepSE_hepatic necrosis with Hepatotoxicity [7] (Liver) was found to be 0. Also, the HepSE_hepatitis with Hepatotoxicity [8] (Liver) was determined as 0. Further, the HepSE_hepatomegaly with Hepatotoxicity [9] (Liver) is listed as 0. The same compound had a HepSE_jaundice in the data set with Hepatotoxicity [10] (Liver) of 0. In the data set with Hepatotoxicity [11] (Liver), this compound came in with a HepSE_liver disease of 0. The same compound returned a HepSE_liver fatty with Hepatotoxicity [12] (Liver) of 0. Further, in the data set on Hepatotoxicity [13] (Liver), the “HepSE_liver function tests abnormal” value came to 0. The “HepSE_Combined Scores” value in the data set on Hepatotoxicity [14] (Liver) worked out at 0.

Compound `CNC(=C[N+](=O)[O-])NCCSCc1ccc(CN(C)C)o1` [RANITIDINE] yielded a HepSE_bilirubinemia with Hepatotoxicity [1] of 0. The same compound returned a HepSE_cholecystitis in the data set on Hepatotoxicity [2] of 0. The compound also came in with a HepSE_cholelithiasis with Hepatotoxicity [3] of 0. The compound further gave a HepSE_cirrhosis in the data set on Hepatotoxicity [4] of 0. In the data set with Hepatotoxicity [5], the “HepSE_elevated liver function tests” value came to 0. This compound displayed a HepSE_hepatic failure with Hepatotoxicity [6] of 1. In the data set on Hepatotoxicity [7], this compound showed a HepSE_hepatic necrosis of 0. The compound further displayed a HepSE_hepatitis in the data set with Hepatotoxicity [8] of 1. In the data set on Hepatotoxicity [9], the HepSE_hepatomegaly is 0. Moreover, in the data set with Hepatotoxicity [10], the HepSE_jaundice is reported as 1. The HepSE_liver disease in the data set on Hepatotoxicity [11] stood at 1. Moreover, in the data set with Hepatotoxicity [12], the HepSE_liver fatty is given as 0. Moreover, the “HepSE_liver function tests abnormal” value in the data set with Hepatotoxicity [13] worked out at 0. For the same compound, in the data set with Hepatotoxicity [14], the “HepSE_Combined Scores” value was 4.

As for `C[C@@H](O[C@H]1OCCN(Cc2n[nH]c(=O)[nH]2)[C@H]1c1ccc(F)cc1)c1cc(C(F)(F)F)cc(C(F)(F)F)c1` [APREPITANT], the HepSE_bilirubinemia in the data set on Hepatotoxicity [1] is 0. Also, in the data set with Hepatotoxicity [2], the HepSE_cholecystitis is listed as 0. The compound also returned a HepSE_cholelithiasis in the data set on Hepatotoxicity [3] of 0. Also, the HepSE_cirrhosis in the data set on Hepatotoxicity [4] is listed as 0. For the same compound, the “HepSE_elevated liver function tests” value in the data set on Hepatotoxicity [5] turned out to be 0. Besides, the HepSE_hepatic failure in the data set with Hepatotoxicity [6] was 0. Further, the HepSE_hepatic necrosis in the data set with Hepatotoxicity [7] is 0. The compound also returned a HepSE_hepatitis in the data set on Hepatotoxicity [8] of 0. Also, the HepSE_hepatomegaly in the data set with Hepatotoxicity [9] is 0. In the data set on Hepatotoxicity [10], this compound showed a HepSE_jaundice of 0. In the data set on Hepatotoxicity [11], this compound had a HepSE_liver disease of 0. The same compound returned a HepSE_liver fatty in the data set with Hepatotoxicity [12] of 0. In addition, the “HepSE_liver function tests abnormal” value in the data set with Hepatotoxicity [13] is given as 0. For the same compound, the “HepSE_Combined Scores” value in the data set with Hepatotoxicity [14] was 0.

For `N=C(N)NCCC[C@H](N)C(=O)O` [ARGININE], the HepSE_bilirubinemia in the data set with Hepatotoxicity [1] is 0. In the data set with Hepatotoxicity [2], this compound showed a HepSE_cholecystitis of 0. The same compound displayed a HepSE_cholelithiasis in the data set on Hepatotoxicity [3] of 0. For the same compound, the HepSE_cirrhosis with Hepatotoxicity [4] was found to be 0. Moreover, the “HepSE_elevated liver function tests” value with Hepatotoxicity [5] stood at 0. The HepSE_hepatic failure in the data set with Hepatotoxicity [6] is listed as 0. In the data set with Hepatotoxicity [7], this compound displayed a HepSE_hepatic necrosis of 0. Moreover, the HepSE_hepatitis in the data set with Hepatotoxicity [8] came out at 0. Further, in the data set on Hepatotoxicity [9], the HepSE_hepatomegaly is reported as 0. Further, the HepSE_jaundice in the data set on Hepatotoxicity [10] was determined as 0. In the data set on Hepatotoxicity [11], the HepSE_liver disease came to 0. The HepSE_liver fatty with Hepatotoxicity [12] worked out at 0. For the same compound, the “HepSE_liver function tests abnormal” value in the data set on Hepatotoxicity [13] is 0. The “HepSE_Combined Scores” value in the data set on Hepatotoxicity [14] came out at 0.

These data come from ChEMBL document CHEMBL1909294, “Translating clinical findings into knowledge in drug safety evaluation--drug induced liver injury prediction system (DILIps)” (PLoS Comput Biol, 2011).
